Test results from patent US9284276B2, “N-ethyl-N-phenyl-1,2-dihydro-4,5-di-hydroxy-1-methyl-2-oxo-3-quinolinecarboxamide, preparation and uses thereof” (TEVA PHARMACEUTICAL INDUSTRIES, LTD., priority 2012, dated 2016).
Blank lines part the entries; values can stand above or below the compound they belong to.

How the values were obtained:
[1] = in vivo; cited from earlier work
[2] = Stability of 5-HLAQ in solvents; type: physicochemical; conditions: in most of the organic solvents as well as in aqueous acidic conditions
Text: N-Ethyl-N-phenyl-1,2-dihydro-4,5-di-hydroxy-1-methyl-2-oxo-3-quinolinecarboxamide (5-HLAQ) is not stable in most of the organic solvents as well as in aqueous acidic conditions. Therefore common purification methods were extremely difficult. The di-acetate derivative Compound 3 is an elegant way to purify the material followed only by basic hydrolysis, acidic precipitation and rapid filtration.

[3] = tested on: acute experimental autoimmune encephalomyelitis (aEAE) model; conditions: U.S. Pat. No. 6,077,851; cited from earlier work
[4] = tested on: active MRI lesions in relapsing MS; conditions: Polman et al. 2005; cited from earlier work
[5] = Formation of 5-HLAQ on light exposure of laquinimod, determined by HPLC; type: physicochemical
Procedure: Various forms of laquinimod were exposed to light, as specified below. Presence of 5-HLAQ was determined using HPLC.

[6] = Influence of blister pack material on photo-degradation of laquinimod 0.6 mg capsules; type: physicochemical
Procedure: The goal of this study is to examine the photo-degradation of laquinimod sodium capsules, 0.6 mg, packed in blisters of various materials.
One batch of laquinimod sodium capsules, 0.6 mg/capsule was packed into four different types of blisters: PVC/AC/PVDC/PVLE/P058 504 142 (transparent), PVC/PE-EVOH/AC (A 300) G03 140 MM (transparent), A-/PVC/PE-EVOH/AC-PC (opaque), and KPMAX WH (opaque). Control was the same batch not exposed to sunlight in HDPE 50 cc DUMA™ bottle.

SMILES: CCN(C(=O)c1c(O)c2c(Cl)cccc2n(C)c1=O)c1ccccc1 [Laquinimod sodium]
Oral bioavailability [1]: high

Stability in solvents [2]: not stable
SMILES: CCN(C(=O)c1c(O)c2c(O)cccc2n(C)c1=O)c1ccccc1 [Compound 5-HLAQ, N-Ethyl-N-phenyl-1,2-dihydro-4,5-di-hydroxy-1-methyl-2-oxo-3-quinolinecarboxamide]

Presence of 5-HLAQ (wt %) ([5]; Light chamber 310-400 nm (~8 hrs.), 0.05 mg/ml in 0.02M HCl): 1.5 wt %
Presence of 5-HLAQ (wt %) ([5]; Light chamber 310-400 nm (~8 hrs.), 0.05 mg/ml in 0.02M NaOH): 71 wt %
Presence of 5-HLAQ (wt %) ([5]; Light chamber 310-400 nm (~8 hrs.), 1 mg/ml in 0.02M NaOH, relative to laquinimod before photodegradation): 33 wt %
Presence of 5-HLAQ (wt %) ([5]; Sunlight cabinet (5 minutes), 0.09 mg/ml aqueous solution): 11.8 wt %
Sensitivity to light [6]: sensitive to light
SMILES: CCN(C(=O)c1c(O)c2c(Cl)cccc2n(C)c1=O)c1ccccc1 [Laquinimod, N-ethyl-N-phenyl-1,2-dihydro-4-hydroxy-5-chloro-1-methyl-2-oxoquinoline-3-carboxamide]
Efficacy in aEAE model [3]: effective
Development of active MRI lesions [4]: can reduce development of active MRI lesions
